Assay results as given in US7041785B1, “B1-bradykinin receptor antagonists and use thereof” (Université de Sherbrooke, priority 1996, dated 2006).
Non-standard residues stand in square brackets, D forms with d. Residues, ends and D or L forms follow the SMILES beside them. d2Nal = N[C@H](Cc1ccc2ccccc2c1)C(=O)O; dTic = O=C(O)[C@H]1Cc2ccccc2CN1; NMeA = CN[C@@H](C)C(=O)O

What was measured:
[1] = target: T1, B1 receptor (Oryctolagus cuniculus, UniProt P48748); assay: cell-based; conditions: for Kb: Rb.A. pA2, apparent affinity as antagonist vs desArg9BK; for Rb.A. α^E: residual agonistic activity at 10 μg/mL in comparison with desArg9BK
T1 sequence (P48748 1-352): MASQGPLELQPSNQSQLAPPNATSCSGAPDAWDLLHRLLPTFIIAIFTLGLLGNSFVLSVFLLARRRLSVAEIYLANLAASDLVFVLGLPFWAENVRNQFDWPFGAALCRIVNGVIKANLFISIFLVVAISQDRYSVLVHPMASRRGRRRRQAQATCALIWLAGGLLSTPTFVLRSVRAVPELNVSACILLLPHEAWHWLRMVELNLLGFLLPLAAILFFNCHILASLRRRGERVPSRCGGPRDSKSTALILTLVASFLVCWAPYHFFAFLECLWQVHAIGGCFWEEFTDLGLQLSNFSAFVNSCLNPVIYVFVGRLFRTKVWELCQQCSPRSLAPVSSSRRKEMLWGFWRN
From the text: (§1) Tissues were taken from New Zealand white rabbits (1.5–2.5 kg) and Dunken Hartley guinea pigs (250–350 g) of either sex, killed by stunning and exsanguination. Umbilical cords were taken from healthy women 22–40 years old after spontaneous delivery at term. The rabbit jugular vein (RbJV), the guinea pig ileum (GPI), two preparations containing B2 receptors, the rabbit aorta (RbA) (B1 receptor) and the human umbilical vein (HUV), a mixed preparation containing both B1 and B2 receptors^10, were used. Helical strips of RbJV treated with 1 μmol/L of captopril to avoid peptide degradation by the angiotensin-converting enzyme (ACE), alias kininase II were prepared according to Gaudreau et al.^11 Helical strips of RbA devoid of endothelium were prepared according to Furchgott and Bhadrakom^12. Longitudinal segments of GPI were prepared with the procedure described by Rang^13. Helical strips of HUV were prepared according to Gobeil et al.^10. The tissues were suspended in 10-ml organ baths containing warm (37EC), oxygenated (95% O2–5% CO2) Krebs solution of the following composition in mmol/L; NaCl: 118.1; KCl: 4.7; CaCl26H2O: 2.5; KH2PO4: 1.2; MgSO47H2O: 1.18; NaHCO3: 25.0 and D-Glucose: 5.5. The RbA and the HUV were stretched with an initial tension of 2 g, whereas the RbJV and the GPI were loaded with 0.5 g. Changes of tension produced by the various agents were measured with Grass isometric transducers (model FT 03C, Grass Instrument Co., Quincy, Mass.). […] Before testing the drugs, the tissues were allowed to equilibrate for 60–120 min during which time the tissues were repeatedly washed and the tension readjusted every 15 min.
(§2) At the beginning of each experiment, a submaximal dose of bradykinin (BK) (9 nmol/L), was applied repeatedly on the RbJV, the GPI or the HUV to ensure that tissues responded with stable contractions. […] A similar protocol was used for the HUV.
(§3) Repeated applications of a singl and double concentration of BK (on RbJV, GPI and HUV) and of desArg^9BK (RbA and HUV) were made in the absence and in presence of the various peptides to evaluate their apparent affinities as antagonists, in terms of pA2 (-log10 of the molar concentration of antagonist that reduces the effect of a double concentration of agonist to that of a single one)^14. The antagonists were applied 10 min before measuring the myotropic effects of either BK (the B2 receptor agonist) or desArg^9BK (the B1 receptor agonist). […] All kinin antagonists were initially applied to tissues at concentration of 10 μg/mL to measure their potential agonistic activities (α^E) in comparison with BK (in the B2 receptor preparations) or desArg^9BK (in the B1 receptor preparations).

[2] = target: T2, B2 receptor (Cavia porcellus, UniProt O70526); assay: cell-based; conditions: for G.P.I. pA2: vs BK, Inactive = no detectable antagonistic effect at ≦ 10 μg/ml, F.ag. full agonist, P.ag. partial agonist; for G.P.I. α^E: residual agonistic activity at 10 μg/mL in comparison with BK
T2 sequence (O70526 1-372): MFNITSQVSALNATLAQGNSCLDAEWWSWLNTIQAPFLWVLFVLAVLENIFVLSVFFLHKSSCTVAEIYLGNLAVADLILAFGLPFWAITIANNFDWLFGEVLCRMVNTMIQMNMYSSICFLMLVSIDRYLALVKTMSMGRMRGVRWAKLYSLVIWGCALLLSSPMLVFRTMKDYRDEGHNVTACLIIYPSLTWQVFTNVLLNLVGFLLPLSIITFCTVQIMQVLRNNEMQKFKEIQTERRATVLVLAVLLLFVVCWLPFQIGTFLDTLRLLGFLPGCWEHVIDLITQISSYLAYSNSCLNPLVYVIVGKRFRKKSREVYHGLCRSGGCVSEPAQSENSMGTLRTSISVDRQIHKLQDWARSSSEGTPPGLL
From the text: as §1, §2, §3

[3] = test system: T3, angiotensin-converting enzyme (ACE); assay: Metabolic degradation by purified angiotensin-converting enzyme, HPLC analysis; type: in vitro ADME, rabbit; conditions: rabbit, isolated enzyme ace, pH 7.5
T3 construct: purified angiotensin-converting enzyme (ACE) from rabbit lungs; purchased Sigma, St-Louis, Mo; host or cells: purified from rabbit lungs
Experimental: The metabolic stability of various kinin-related peptides was evaluated by incubating the peptide in the presence of purified angiotensin-converting enzyme (ACE) from rabbit lungs (purchased from Sigma, St-Louis, Mo.) dissolved in phosphate buffered saline (PBS) (50 mmol/L, pH 7.5 containing 300 mmoL/L NaCl); the final concentration of enzyme was 45 μg/mL. The experimental protocol for the measurement of ACE activity has been described elsewhere^15,16. Briefly, 200 μmol/L of peptides (40 μL) were placed in a PBS buffer and incubated for 5 min at 37EC before adding 8.5 μL of ACE (total volume of the reaction medium; 190 μL). Samples were withdrawn at 30 min intervals, immersed in boiling water for 5 min, then cooled on ice and centrifuged (5 min) before proceeding to analysis of peptides by high pressure liquid chromatography (HPLC). Results of ACE metabolism are expressed in percent of kinin degradation following the incubation (30 min) of kinin substrates with the enzyme.
Pure peptides and metabolic products were analysed by reverse-phas HPLC on a C18 μBondapak column (4.6 mm×25 cm) (Waters) of 10-μm particle size. The peptides and their fragments were eluted at the rate of 2.0 mL/min. with a linear gradient ranging from 5 to 65% of acetonitrile/TFA 0.05%/water over 20 min. at room temperature. The elution positions of these peptides were determined by following the absorbance at 214 nm. For each assay, 50 μL of the reaction medium (treated or not with ACE) were extracted and injected into the column. Concentrations of the peaks products, different from the peaks of the peptide substrate, were estimated using a computer software program (Baseline 810; Waters) that controlled also all the chromatography operations. Isolated metabolites and substrates were collected and identified by Electrospray mass spectrometry (positive mode).

[4] = target: T4, B2 receptor (Oryctolagus cuniculus, UniProt Q28642); conditions: vs BK; captopril 1 μmol/L; Inactive = no detectable antagonistic effect at ≦ 10 μg/ml
T4 sequence (Q28642 1-367): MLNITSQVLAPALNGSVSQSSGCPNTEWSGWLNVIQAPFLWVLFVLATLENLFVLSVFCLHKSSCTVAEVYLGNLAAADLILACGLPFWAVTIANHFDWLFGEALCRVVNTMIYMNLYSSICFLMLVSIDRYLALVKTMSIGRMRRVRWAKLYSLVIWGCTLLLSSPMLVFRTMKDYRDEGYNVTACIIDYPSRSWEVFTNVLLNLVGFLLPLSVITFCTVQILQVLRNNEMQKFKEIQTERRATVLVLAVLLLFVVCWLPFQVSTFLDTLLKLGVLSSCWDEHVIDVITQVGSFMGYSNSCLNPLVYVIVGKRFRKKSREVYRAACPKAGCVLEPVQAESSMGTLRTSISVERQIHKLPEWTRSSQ

[5] = target: T4, B2 receptor; assay: cell-based; conditions: residual agonistic activity at 10 μg/mL in comparison with BK
From the text: as §1, §2, §3

[6] = antagonist applied 10 min before, Inactive = no detectable antagonistic effect at ≦ 10 μg/ml

Rb.A. pA2 ([1]; apparent affinity as antagonist vs desArg9BK, antagonist applied 10 min before, Inactive = no detectable antagonistic effect at ≦ 10 μg/ml) | Compound | Kb [1, 6] [nM] | G.P.I. pA2 [2] | metabolised at 0.5 h, 42.1 μmol/L [3] [%] | Rb.J.V. pA2 [4] | Kb [2] [µM] | Rb.A. α^E [1] | G.P.I. α^E [2] | Rb.J.V. α^E [5] | EC50 [2] [nM] | metabolised at 0.5 h [3] [%]
 | CC(C)C[C@H](NC(=O)[C@@H]1CCCN1C(=O)[C@H](CO)NC(=O)[C@H](Cc1ccccc1)NC(=O)CNC(=O)[C@@H]1C[C@@H](O)CN1C(=O)[C@@H]1CCCN1C(=O)[C@H](CCCNC(=N)N)NC(=O)[C@@H](N)CCCCN)C(=O)O [Compound 3, Lys(Hyp^3, Leu^8)desArg^9BK] | 6.92 | Inactive | 40 ± 3 | Inactive |  |  |  |  |  | 
 | CC(C)C[C@H](NC(=O)[C@@H]1CCCN1C(=O)[C@H](CO)NC(=O)[C@H](Cc1ccccc1)NC(=O)CNC(=O)[C@@H]1C[C@@H](O)CN1C(=O)[C@@H]1CCCN1C(=O)[C@H](CCCNC(=N)N)NC(=O)[C@H](N)CCCNC(=N)N)C(=O)O [Compound 4, D-Arg(Hyp^3, Leu^8)desArg^9BK] | 339 |  | 83 ± 2 | Inactive | > 9.55 |  |  |  |  | 
 | CC(=O)N[C@@H](CCCCN)C(=O)N[C@@H](CCCNC(=N)N)C(=O)N1CCC[C@H]1C(=O)N1C[C@H](O)C[C@H]1C(=O)NCC(=O)N[C@@H](Cc1ccccc1)C(=O)N[C@@H](CO)C(=O)N1CCC[C@H]1C(=O)N[C@@H](CC(C)C)C(=O)O [Compound 5, AcLys(Hyp^3, Leu^8)desArg^9BK] | 178 |  | 66 ± 1 | Inactive | > 9.55 | 0 | 0.30 | 0.03 |  | 
 | CC(=O)N[C@@H](CCCCN)C(=O)N[C@@H](CCCNC(=N)N)C(=O)N1CCC[C@H]1C(=O)N1CCC[C@H]1C(=O)NCC(=O)N[C@@H](Cc1ccccc1)C(=O)N[C@@H](CO)C(=O)N1Cc2ccccc2C[C@@H]1C(=O)N[C@@H](CC(C)C)C(=O)O [Compound 11, AcLys(D-Tic^7, Leu^8)desArg^9BK] (Ac-KRPPGFS[dTic]L-OH; C-terminus assumed) | 6760 |  |  | Inactive |  | 0 |  | 0.37 | 1410 | 0
 | CC(=O)N[C@@H](CCCCN)C(=O)N[C@@H](CCCNC(=N)N)C(=O)N1CCC[C@H]1C(=O)N1CCC[C@H]1C(=O)NCC(=O)N[C@@H](Cc1ccccc1)C(=O)N(C)[C@@H](C)C(=O)N1CCC[C@H]1C(=O)N[C@@H](CC(C)C)C(=O)O [Compound 21, AcLys(N-MeAla^6, Leu^8)desArg^9BK, reference compound] (Ac-KRPPGF[NMeA]PL-OH; C-terminus assumed) | 282 | Inactive | 0 | Inactive |  | 0.01 | 0.19 | 0 |  | 
 | CC[C@H](C)[C@H](NC(=O)[C@@H](Cc1ccc2ccccc2c1)NC(=O)[C@H](C)N(C)C(=O)[C@H](Cc1ccccc1)NC(=O)CNC(=O)[C@@H]1CCCN1C(=O)[C@@H]1CCCN1C(=O)[C@H](CCCNC(=N)N)NC(=O)[C@H](CCCCN)NC(C)=O)C(=O)O [Compound 22, AcLys(N-MeAla^6, D-βNal^7, IIe^8)desArg^9BK] (Ac-KRPPGF[NMeA][d2Nal]I-OH; C-terminus assumed) | 537 | P.ag. | 0 | Inactive |  | 0 |  | 0.03 |  | 
7.94 ± 0.06 | D-Arg(Hyp^3, D-Hyp^7(trans propyl), Oic^8)desArg^9BK [Compound 33, reference compound] |  |  |  | 6.99 ± 0.04 |  | 0 | 0 | 0 |  | 
